System: MCF7 antiproliferative assay
Assay: PubChem AID 1224918

Compound COc1cc(-c2nn(CCN3CCC(N(C)C)CC3)c3ncnc(N)c23)ccc1NC(=O)OC(C)(C)C has an EC50 of 70 nM.
